Results published in patent publication US11357809B2, “Herbal preparation for stimulation of hair growth, control of hair fall, dandruff and infections thereof using Ageratum spp” (GE Nutrients, Inc., priority 2019, dated 2022).
Several values for one entry are separate records, joined by “and”; a condition that tells them apart may be missing. Equal entries are not always repeated.

Assays:
5-alpha-reductase enzyme = conditions: constituents of Ageratum spp. extracts; no test described; cited from earlier work
bovine corneas = test: Bovine Corneal Opacity and Permeability assay (ocular irritation)
Source text: SUMMARY: This test was designed to assess the ocular irritation potential of a non-surfactant, liquid article such as Ageratum conyzoides extract. The test is a modification of that described by Gautheron, et. al. (“Bovine Corneal Opacity and Permeability Test: An In Vitro Assay of Ocular Irritancy” Fund. Appl. Toxicol. 18:442-449 (1992)), and Vanparys, et al. (“Evaluation of the bovine opacity-permeability assay as an in vitro alternative to the Draize eye irritation test” Toxicol. In Vitro 7:471-76 (1994)).
Bovine eyes were obtained by this facility from a local abattoir. The eyes were transported in an appropriate container containing Hank's balanced salt solution (HBSS, Sigma Chemical Co., H-1387). Transportation and storage of the eyes was at approximately 21° C. (70° F.). The eyes were used the day of their harvest and transport.
Upon test initiation, the iris and the lens were removed and the corneas were placed in the bovine cornea holders. The endothelial surface was applied to the O-ring of the posterior part of the holder. The anterior part of the holder was placed against the epithelial side of the cornea. The two sides of the holder were screwed together. The bovine holders' components were then filled with pre-warmed Eagle's Minimum Essential Media (EM EM, Sigma Chemical Co., M-3024) with 1% Fetal Bovine Serum (FBS, American Type Culture Collection) at approximately 32° C.±2° C. (90° F.±4° F.). The posterior chamber was filled first. The corneas were incubated for approximately one hour, in a 32° C.±2° C. (90° F.±4° F.) water bath. This allowed for the pre-equilibration of the corneas to the external medium.
After the pre-equilibration period, media from both of the chamber of the cassettes was aspirated, with the anterior chamber being aspirated first. Each chamber was then refilled with fresh EMEM, with the posterior chamber being filled first. Initial opacity readings were taken and recorded. Corneas with initial readings greater than […] were not used. Three corneas were assigned to each test and control article. The corneas with the lowest readings were used as the negative controls.
The test article and the positive control article (ethanol) and the negative control article (physiological saline) were each tested at 100%.
A volume of 0.75 milliliters of the appropriate article, pre-warmed to 32° C.±2° C. (90° F.±4° F.), was introduced into the anterior chamber of the appropriate cassettes. The anterior chambers were then plugged and turned to a horizontal position. They were then rotated slightly, so that the article uniformly covered each cornea. The cassettes were incubated for 10 minutes at 32° C.±2° C. (90° F.±4° F.), in a water bath.
The anterior chambers of each cassette were then refilled with fresh EMEM via syringe. After refilling, the chambers were again plugged. All corneas were then incubated for 2 hours at approximately 32° C.±2° C. (90° F.±4° F.), in a water bath.
After this 2 hour incubation period, all compartments were emptied and refilled with fresh EMEM. Each holder was individually placed in the “positive” compartment, while the “negative” compartment was left empty. The glass portion of each holder was dried prior to the reading. The opacity of each cornea was taken and recorded. The corneas were also observed grossly. Any unusual findings, such as opaque spots, were recorded.
After the opacity readings were completed, the medium was removed from the anterior chambers. Either a suitable pipette tip or a flat ended needle was used for this procedure. One milliliter of 6 mg/ml fluorescein (Sodium Fluorescein, Sigma-Aldrich, F-637 in Dulbecco's Phosphate Buffered Saline (DPBS Sigma-Aldrich) pH approximately 7.5) solution was added to each of the anterior chambers. A micro pipette was used for this procedure.
After the fluorescein solution was added to each anterior compartment, the compartments were plugged. The cassettes were then incubated, in a horizontal position, for 90 minutes at 32° C.±2° C.

[1] = individual cornea, negative control average subtracted
[2] = mean of three corneas, article at 100%

SMILES: CCCCC/C=C\C/C=C\CCCCCCCC(=O)O [9,12-octadecadienoic acid (Z,Z)-]
- identified as 5-alpha-reductase inhibitor (5-alpha-reductase enzyme): 5-alpha-reductase inhibitors

SMILES: CCO [+Control, Ethanol]
- Difference (terminal minus initial opacity) (bovine corneas; individual cornea, article at 100%): 51 and 45 and 54
- Terminal Opacity (bovine corneas; individual cornea, article at 100%, 10 minute exposure, 2 hour incubation): 56 and 46 and 55
- Initial Opacity (bovine corneas; individual cornea, baseline reading before exposure): 2 and 1 (2×)
- Optical Density490 (bovine corneas; individual cornea, fluorescein permeability, 90 minutes): 1.239 and 0.662 and 1.663
- Corrected Corneal Opacity (bovine corneas; [1]): 48.3 and 42.3 and 51.3
- Corrected OD490 (bovine corneas; [1]): 1.233 and 0.656 and 1.657
- In Vitro Score (bovine corneas; individual cornea, Corrected Corneal Opacity + 15 x Corrected OD490): 65.8 and 52.5 and 76.2
- Mean Corrected OD490 (bovine corneas; mean of three corneas): 1.182
- Average In Vitro Score (bovine corneas; [2]): 65.0
- Mean Corrected Corneal Opacity (bovine corneas; [2]): 47.3

SMILES: CC/C=C\C/C=C\C/C=C\CCCCCCCC(=O)O [Alpha-linolenic acid]
- identified as 5-alpha-reductase inhibitor (5-alpha-reductase enzyme): 5-alpha-reductase inhibitors

SMILES: CCCCCCCCCCCCCCCC(=O)O [Hexadecanoic acid]
- identified as 5-alpha-reductase inhibitor (5-alpha-reductase enzyme): 5-alpha-reductase inhibitors

SMILES: O=C1CCc2ccccc2O1 [Hydrocoumarin]
- identified as 5-alpha-reductase inhibitor (5-alpha-reductase enzyme): 5-alpha-reductase inhibitors
